Laboratory results: patent publication US10710986B2, “PD-1/PD-L1 inhibitors” (Gilead Sciences, Inc., priority 2018, dated 2020)

Target: PD-1/PD-L1 (Homo sapiens (Human), UniProt Q9NZQ7)
Assay: PD-1/PD-L1 biochemical protein-protein interaction assay (ALPHA)
Settings: 0.3 nM His tagged PD-L1, 2.5 nM biotinylated Fc-PD-1, 60 minutes at 25° C., read-out: IC50 PD-L1-PD1

Chain of PD-1/PD-L1 (Q9NZQ7 19-238): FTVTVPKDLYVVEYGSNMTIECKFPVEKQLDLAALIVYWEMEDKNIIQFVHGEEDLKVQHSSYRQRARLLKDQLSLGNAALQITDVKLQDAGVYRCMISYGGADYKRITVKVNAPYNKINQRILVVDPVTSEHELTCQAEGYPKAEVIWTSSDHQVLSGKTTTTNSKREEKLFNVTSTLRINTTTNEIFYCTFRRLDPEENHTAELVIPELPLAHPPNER

IC50	SMILES
0.11 nM	COc1nc(-c2cccc(-c3cccc(-c4cnc(CNC[C@@H]5CCC(=O)N5)c(OC)n4)c3Cl)c2Cl)cnc1CNC[C@H]1CCN1 [compound 254]
0.08 nM	COc1nc(-c2cccc(-c3cccc(-c4cnc(CNC[C@@H]5CCC(=O)N5)c(OC)n4)c3Cl)c2Cl)cnc1CNCC1CNC1 [compound 255]
0.16 nM	COc1nc(-c2cccc(-c3cccc(-c4cnc(CN5CCN(C=O)CC5)c(OC)n4)c3Cl)c2Cl)cnc1CNC[C@@H]1CCC(=O)N1 [compound 256]
0.426 nM	COc1nc(-c2cccc(-c3cccc(-c4cnc(CN[C@H](CO)C(C)C)c(OC)n4)c3Cl)c2Cl)cnc1CNC[C@@H]1CCC(=O)N1 [compound 257]
0.673 nM	COc1nc(-c2cccc(-c3cccc(-c4cnc(CN(CCO)CC(F)(F)F)c(OC)n4)c3Cl)c2Cl)cnc1CNC[C@@H]1CCC(=O)N1 [compound 258]
0.273 nM	COc1nc(-c2cccc(-c3cccc(-c4cnc(CN5CCN[C@H](C6CC6)C5)c(OC)n4)c3Cl)c2Cl)cnc1CNC[C@@H]1CCC(=O)N1 [compound 259]
0.295 nM	COc1nc(-c2cccc(-c3cccc(-c4cnc(CN5CC[C@@H](OC)[C@@H](F)C5)c(OC)n4)c3Cl)c2Cl)cnc1CNC[C@@H]1CCC(=O)N1 [compound 260]
0.128 nM	COc1nc(-c2cccc(-c3cccc(-c4cnc(CN5CCCC(F)(CO)C5)c(OC)n4)c3Cl)c2Cl)cnc1CNC[C@@H]1CCC(=O)N1 (stereo partly shown) [compound 261]
0.465 nM	COc1nc(-c2cccc(-c3cccc(-c4cnc(CNC[C@@H]5CC(C)C(=O)N5)c(OC)n4)c3Cl)c2Cl)cnc1CNC[C@@H]1CCC(=O)N1 (stereo partly shown) [compound 262]
0.379 nM	COc1nc(-c2cccc(-c3cccc(-c4cnc(CN5C[C@@H](O)C[C@@H](F)C5)c(OC)n4)c3Cl)c2Cl)cnc1CNC[C@@H]1CCC(=O)N1 [compound 263]
0.407 nM	COc1nc(-c2cccc(-c3cccc(-c4cnc(CN5C[C@H](O)C[C@@H](F)C5)c(OC)n4)c3Cl)c2Cl)cnc1CNC[C@@H]1CCC(=O)N1 [compound 264]
0.225 nM	COc1nc(-c2cccc(-c3cccc(-c4cnc(CN5C[C@H](O)[C@@H](F)C5)c(OC)n4)c3Cl)c2Cl)cnc1CNC[C@@H]1CCC(=O)N1 [compound 265]
0.243 nM	COc1nc(-c2cccc(-c3cccc(-c4cnc(CN5C[C@H](O)[C@@H](C#N)C5)c(OC)n4)c3Cl)c2Cl)cnc1CNC[C@@H]1CCC(=O)N1 [compound 266]
0.606 nM	COc1nc(-c2cccc(-c3cccc(-c4cnc(CNC5CCC(F)(F)C5)c(OC)n4)c3Cl)c2Cl)cnc1CNC[C@@H]1CCC(=O)N1 (stereo partly shown) [compound 267]
0.352 nM	COc1nc(-c2cccc(-c3cccc(-c4cnc(CN[C@H]5C[C@H]5CO)c(OC)n4)c3Cl)c2Cl)cnc1CNC[C@@H]1CCC(=O)N1 [compound 268]
0.23 nM	COc1nc(-c2cccc(-c3cccc(-c4cnc(CN5CCN(C6CC6)CC5)c(OC)n4)c3Cl)c2Cl)cnc1CNC[C@@H]1CCC(=O)N1 [compound 269]
0.378 nM	COc1nc(-c2cccc(-c3cccc(-c4cnc(CN5CCC[C@@H](F)C5)c(OC)n4)c3Cl)c2Cl)cnc1CNC[C@@H]1CCC(=O)N1 [compound 270]
1.7 nM	COc1nc(-c2cccc(-c3cccc(-c4cnc(CN5CCCC(F)(F)C5)c(OC)n4)c3Cl)c2Cl)cnc1CNC[C@@H]1CCC(=O)N1 [compound 271]
2.43 nM	COc1nc(-c2cccc(-c3cccc(-c4cnc(CN5CCCC(C(F)F)C5)c(OC)n4)c3Cl)c2Cl)cnc1CNC[C@@H]1CCC(=O)N1 (stereo partly shown) [compound 272]
0.265 nM	COc1nc(-c2cccc(-c3cccc(-c4cnc(CNC5CC6CC6C5)c(OC)n4)c3Cl)c2Cl)cnc1CNC[C@@H]1CCC(=O)N1 (stereo partly shown) [compound 273]
0.117 nM	COc1nc(-c2cccc(-c3cccc(-c4cnc(CN[C@H]5C[C@@](C)(O)C5)c(OC)n4)c3Cl)c2Cl)cnc1CNC[C@@H]1CCC(=O)N1 [compound 274]
0.064 nM	COc1nc(-c2cccc(-c3cccc(-c4cnc(CNC[C@H]5C[C@H](O)C5)c(OC)n4)c3Cl)c2Cl)cnc1CNC[C@@H]1CCC(=O)N1 [compound 275]
0.27 nM	COc1nc(-c2cccc(-c3cccc(-c4cnc(CN[C@@H]5C[C@H]5CO)c(OC)n4)c3Cl)c2Cl)cnc1CNC[C@@H]1CCC(=O)N1 [compound 276]
0.652 nM	COc1nc(-c2cccc(-c3cccc(-c4cnc(CN5CC[C@H](O)[C@@H](F)C5)c(OC)n4)c3Cl)c2Cl)cnc1CNC[C@@H]1CCC(=O)N1 [compound 277]
0.538 nM	COc1nc(-c2cccc(-c3cccc(-c4cnc(CN5CC[C@@H](O)[C@@H](F)C5)c(OC)n4)c3Cl)c2Cl)cnc1CNC[C@@H]1CCC(=O)N1 [compound 278]
0.343 nM	COc1nc(-c2cccc(-c3cccc(-c4cnc(CN5CC[C@@H](O)[C@H](F)C5)c(OC)n4)c3Cl)c2Cl)cnc1CNC[C@@H]1CCC(=O)N1 [compound 279]
0.18 nM	COc1nc(-c2cccc(-c3cccc(-c4cnc(CN5CC[C@H](O)[C@H](F)C5)c(OC)n4)c3Cl)c2Cl)cnc1CNC[C@@H]1CCC(=O)N1 [compound 280]
1.19 nM	COc1nc(-c2cccc(-c3cccc(-c4cnc(CNC[C@@H]5CCC(=O)N5)c(OC)n4)c3Cl)c2Cl)cnc1CNCC1COC(=O)N1 (stereo partly shown) [compound 281]

IC50	SMILES
1.57 nM	COc1nc(-c2cccc(-c3cccc(-c4cnc(CN5CCC(F)(F)CC5)c(OC)n4)c3Cl)c2Cl)cnc1CNC[C@@H]1CCC(=O)N1 [compound 282]
0.711 nM	COc1nc(-c2cccc(-c3cccc(-c4cnc(CNC5CC(F)C5)c(OC)n4)c3Cl)c2Cl)cnc1CNC[C@@H]1CCC(=O)N1 (stereo partly shown) [compound 283]
0.816 nM	COc1nc(-c2cccc(-c3cccc(-c4cnc(CNC5CC(F)(F)C5)c(OC)n4)c3Cl)c2Cl)cnc1CNC[C@@H]1CCC(=O)N1 [compound 284]
0.358 nM	COc1nc(-c2cccc(-c3cccc(-c4cnc(CN5CCCC(NC(C)=O)C5)c(OC)n4)c3Cl)c2Cl)cnc1CNC[C@H]1CCC(=O)N1 (stereo partly shown) [compound 285]
0.06 nM	COc1nc(-c2cccc(-c3cccc(-c4cnc(CNCC5(O)CCS(=O)(=O)C5)c(OC)n4)c3Cl)c2Cl)cnc1CNC[C@@H]1CCC(=O)N1 (stereo partly shown) [compound 286]
0.34 nM	COc1nc(-c2cccc(-c3cccc(-c4cnc(CN5CC[C@H]6CNC(=O)[C@H]65)c(OC)n4)c3Cl)c2Cl)cnc1CNC[C@@H]1CCC(=O)N1 [compound 287]
0.26 nM	CNC(=O)CNCc1ncc(-c2cccc(-c3cccc(-c4cnc(CNC[C@@H]5CCC(=O)N5)c(OC)n4)c3Cl)c2Cl)nc1OC [compound 288]
0.06 nM	COc1nc(-c2cccc(-c3cccc(-c4cnc(CN5CC6(CC(O)C6)C5)c(OC)n4)c3Cl)c2Cl)cnc1CNC[C@@H]1CCC(=O)N1 [compound 289]
0.259 nM	COc1nc(-c2cccc(-c3cccc(-c4cnc(CN5CCC6(CC5)NC(=O)NC6=O)c(OC)n4)c3Cl)c2Cl)cnc1CNC[C@@H]1CCC(=O)N1 [compound 290]
0.216 nM	COc1nc(-c2cccc(-c3cccc(-c4cnc(CN5CCCC6(C5)NC(C)=NC6=O)c(OC)n4)c3Cl)c2Cl)cnc1CNC[C@@H]1CCC(=O)N1 (stereo partly shown) [compound 291]
0.229 nM	COc1nc(-c2cccc(-c3cccc(-c4cnc(CN5CCC6(C5)NC(=O)NC6=O)c(OC)n4)c3Cl)c2Cl)cnc1CNC[C@@H]1CCC(=O)N1 (stereo partly shown) [compound 292]
0.516 nM	COc1nc(-c2cccc(-c3cccc(-c4cnc(CN5CCCC6(C5)NC(=O)NC6=O)c(OC)n4)c3Cl)c2Cl)cnc1CNC[C@@H]1CCC(=O)N1 (stereo partly shown) [compound 293]
0.298 nM	COc1nc(-c2cccc(-c3cccc(-c4cnc(CN5CCC6(C5)NC(=O)N(C)C6=O)c(OC)n4)c3Cl)c2Cl)cnc1CNC[C@@H]1CCC(=O)N1 (stereo partly shown) [compound 294]
0.414 nM	COc1nc(-c2cccc(-c3cccc(-c4cnc(CN[C@@H]5CCO[C@@H]5C)c(OC)n4)c3Cl)c2Cl)cnc1CNC[C@@H]1CCC(=O)N1 [compound 295]
0.222 nM	COc1nc(-c2cccc(-c3cccc(-c4cnc(CNC[C@@H]5CCC(=O)N5)c(OC)n4)c3Cl)c2Cl)cnc1CNC[C@H]1CCOC1 [compound 296]
0.254 nM	COc1nc(-c2cccc(-c3cccc(-c4cnc(CN(C)[C@H]5CCOC5)c(OC)n4)c3Cl)c2Cl)cnc1CNC[C@@H]1CCC(=O)N1 [compound 297]
0.181 nM	COc1nc(-c2cccc(-c3cccc(-c4cnc(CN5CCC6(CC(CO)C6)C5)c(OC)n4)c3Cl)c2Cl)cnc1CNC[C@@H]1CCC(=O)N1 (stereo partly shown) [compound 298]
0.299 nM	COc1nc(-c2cccc(-c3cccc(-c4cnc(CN5CC[C@@H](CO)[C@@H](O)C5)c(OC)n4)c3Cl)c2Cl)cnc1CNC[C@@H]1CCC(=O)N1 [compound 300]
0.25 nM	COc1nc(-c2cccc(-c3cccc(-c4cnc(CN5CC6(CCS6(=O)=O)C5)c(OC)n4)c3Cl)c2Cl)cnc1CNC[C@@H]1CCC(=O)N1 [compound 301]
0.089 nM	COc1nc(-c2cccc(-c3cccc(-c4cnc(CNC[C@@H]5CCC(=O)N5)c(OC)n4)c3Cl)c2Cl)cnc1CNCC(N)=O [compound 302]
0.256 nM	COc1nc(-c2cccc(-c3cccc(-c4cnc(CNC[C@@H]5CCC(=O)N5C)c(OC)n4)c3Cl)c2Cl)cnc1CNC[C@@H]1CCC(=O)N1 [compound 303]
0.29 nM	COc1nc(-c2cccc(-c3cccc(-c4cnc(CN[C@@H](CO)C(N)=O)c(OC)n4)c3Cl)c2Cl)cnc1CNC[C@@H]1CCC(=O)N1 [compound 304]
0.244 nM	COc1nc(-c2cccc(-c3cccc(-c4cnc(CNC[C@@H]5CCC(=O)N5)c(OC)n4)c3Cl)c2Cl)cnc1CNCc1cccn(C)c1=O [compound 305]
0.245 nM	COc1nc(-c2cccc(-c3cccc(-c4cnc(CNC[C@@H]5CCC(=O)N5)c(OC)n4)c3Cl)c2Cl)cnc1CNCC1CCS(=O)(=O)N1 (stereo partly shown) [compound 306]
0.167 nM	COc1nc(-c2cccc(-c3cccc(-c4cnc(CN5CC6(C5)CC(C)(O)C6)c(OC)n4)c3Cl)c2Cl)cnc1CNC[C@@H]1CCC(=O)N1 [compound 307]
0.337 nM	COc1nc(-c2cccc(-c3cccc(-c4cnc(CN5CC6(C5)CC(O)(C(F)(F)F)C6)c(OC)n4)c3Cl)c2Cl)cnc1CNC[C@@H]1CCC(=O)N1 [compound 308]
0.178 nM	COC[C@H]1CCN1Cc1ncc(-c2cccc(-c3cccc(-c4cnc(CNC[C@@H]5CCC(=O)N5)c(OC)n4)c3Cl)c2Cl)nc1OC [compound 309]
